Laboratory results from patent publication US12077503B2, “Substituted cyclic amides and their use as herbicides” (FMC CORPORATION, priority 2015, dated 2024).
Where two headings read alike, the source gives them in different places.

Columns and labels:
Format in all cases: in vivo
[1] = test system: pigweed (Amaranthus retroflexus); experiment: Test A postemergence; settings: Amaranthus retroflexus, post-emergence, 240 h; for pest or weed control at 125 g/ha: 125 g ai/ha; for pest or weed control at 500 g/ha: 500 g ai/ha, visual injury, 0 to 100 scale (0 no effect, 100 complete control)
How it was run: (§1)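 Compounds were formulated in a non-phytotoxic solvent mixture with surfactant and applied as a preemergence directed soil spray after seeding, or sprayed postemergence over plants 2 to 10 cm tall at the one- to two-leaf stage. Evaluation after about 10 d compared treated with untreated controls, using a scale from 0 (no effect) to 100 (complete control).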

[2] = test system: ragweed (common ragweed, Ambrosia elatior); experiment: Test A postemergence; settings: Ambrosia artemisiifolia, post-emergence, 240 h; for pest or weed control at 125 g/ha: 125 g ai/ha; for pest or weed control at 500 g/ha: 500 g ai/ha, visual injury, 0 to 100 scale (0 no effect, 100 complete control)
How it was run: as §1

corn (Zea mays) = experiment: Test A postemergence; settings: Zea mays, post-emergence, 240 h; for Corn plant response rating (crop injury, 0 = no effect, 100 = complete kill) at 125 g/ha: 125 g ai/ha, Postemergence, visual injury after approximately 10 d, 0 to 100 scale where 0 is no effect and 100 is complete control; for Corn plant response rating (crop injury, 0 = no effect, 100 = complete kill) at 500 g/ha: 500 g ai/ha, postemergence, visual injury, 0 to 100 scale (0 no effect, 100 complete control), approx. 10 d
How it was run: as §1

[3] = test system: blackgrass (Alopecurus myosuroides); experiment: Test A postemergence; settings: Alopecurus myosuroides, post-emergence, 240 h, read-out: Plant response rating, Blackgrass; for pest or weed control at 125 g/ha: 125 g ai/ha, Postemergence, visual injury after approximately 10 d, 0 to 100 scale where 0 is no effect and 100 is complete control; for pest or weed control at 500 g/ha: 500 g ai/ha, postemergence, visual injury, 0 to 100 scale (0 no effect, 100 complete control), approx. 10 d
How it was run: as §1

[4] = test system: Galium (catchweed bedstraw, Galium aparine); experiment: Test A postemergence; settings: Galium, post-emergence, 240 h; for pest or weed control at 125 g/ha: 125 g ai/ha; for pest or weed control at 500 g/ha: 500 g ai/ha, visual injury, 0 to 100 scale (0 no effect, 100 complete control)
How it was run: as §1

[5] = test system: giant foxtail (Setaria faberii); experiment: Test A postemergence; settings: Setaria faberi, post-emergence, 240 h; for pest or weed control at 125 g/ha: 125 g ai/ha; for pest or weed control at 500 g/ha: 500 g ai/ha, visual injury, 0 to 100 scale (0 no effect, 100 complete control)
How it was run: as §1

[6] = test system: ryegrass, Italian (Italian ryegrass, Lolium multiflorum); experiment: Test A postemergence; settings: Lolium multiflorum, post-emergence, 240 h; for pest or weed control at 125 g/ha: 125 g ai/ha; for pest or weed control at 500 g/ha: 500 g ai/ha, visual injury, 0 to 100 scale (0 no effect, 100 complete control)
How it was run: as §1

[7] = test system: wheat (Triticum aestivum); experiment: Test A postemergence; settings: Triticum aestivum, post-emergence, 240 h; for plant injury at 125 g/ha: 125 g ai/ha; for plant injury at 500 g/ha: 500 g ai/ha, visual injury, 0 to 100 scale (0 no effect, 100 complete control)
How it was run: as §1

[8] = test system: barnyardgrass (Echinochloa crus-galli); experiment: Test A postemergence; settings: Echinochloa crus-galli, post-emergence, 240 h, read-out: Plant response rating, Barnyardgrass; for pest or weed control at 125 g/ha: 125 g ai/ha, Postemergence, visual injury after approximately 10 d, 0 to 100 scale where 0 is no effect and 100 is complete control; for pest or weed control at 500 g/ha: 500 g ai/ha, postemergence, visual injury, 0 to 100 scale (0 no effect, 100 complete control), approx. 10 d
How it was run: as §1

Kochia (Kochia scoparia) = experiment: Test A preemergence; settings: Bassia scoparia, pre-emergence, 240 h; for pest or weed control at 125 g/ha: 125 g ai/ha, Preemergence, visual injury rating after approximately 10 d, read-out: Kochia plant response rating (0 to 100 scale, 0 is no effect, 100 is complete control); for pest or weed control at 500 g/ha: 500 g ai/ha, preemergence, visual injury rating about 10 d after treatment, 0 to 100 scale (0 no effect, 100 complete control), read-out: Kochia plant response rating
How it was run: as §1

[9] = test system: pigweed (Amaranthus retroflexus); experiment: Test A preemergence; settings: Amaranthus retroflexus, pre-emergence, 240 h; for pest or weed control at 125 g/ha: 125 g ai/ha, Preemergence, visual injury rating after approximately 10 d, read-out: Pigweed plant response rating (0 to 100 scale, 0 is no effect, 100 is complete control); for pest or weed control at 500 g/ha: 500 g ai/ha, preemergence, visual injury rating about 10 d after treatment, 0 to 100 scale (0 no effect, 100 complete control), read-out: Pigweed plant response rating
[10] = test system: ragweed (common ragweed, Ambrosia elatior); experiment: Test A preemergence; settings: Ambrosia artemisiifolia, pre-emergence, 240 h; for pest or weed control at 125 g/ha: 125 g ai/ha, Preemergence, visual injury rating after approximately 10 d, read-out: Ragweed plant response rating (0 to 100 scale, 0 is no effect, 100 is complete control); for pest or weed control at 500 g/ha: 500 g ai/ha, preemergence, visual injury rating about 10 d after treatment, 0 to 100 scale (0 no effect, 100 complete control), read-out: Ragweed plant response rating
How it was run: as §1

[11] = test system: giant foxtail (Setaria faberii); experiment: Test A preemergence; settings: Setaria faberi, pre-emergence, 240 h; for pest or weed control at 125 g/ha: 125 g ai/ha, Preemergence, visual injury rating after approximately 10 d, read-out: Foxtail, Giant plant response rating (0 to 100 scale, 0 is no effect, 100 is complete control); for pest or weed control at 500 g/ha: 500 g ai/ha, preemergence, visual injury rating about 10 d after treatment, 0 to 100 scale (0 no effect, 100 complete control), read-out: Foxtail, Giant plant response rating
How it was run: as §1

[12] = test system: ryegrass, Italian (Italian ryegrass, Lolium multiflorum); experiment: Test A preemergence; settings: Lolium multiflorum, pre-emergence, 240 h; for pest or weed control at 125 g/ha: 125 g ai/ha, Preemergence, visual injury rating after approximately 10 d, read-out: Ryegrass, Italian plant response rating (0 to 100 scale, 0 is no effect, 100 is complete control); for pest or weed control at 500 g/ha: 500 g ai/ha, preemergence, visual injury rating about 10 d after treatment, 0 to 100 scale (0 no effect, 100 complete control), read-out: Ryegrass, Italian plant response rating
How it was run: as §1

[13] = test system: barnyardgrass (Echinochloa crus-galli); experiment: Test A preemergence; settings: Echinochloa crus-galli, pre-emergence, 240 h; for pest or weed control at 125 g/ha: 125 g ai/ha, Preemergence, visual injury rating after approximately 10 d, read-out: Barnyardgrass plant response rating (0 to 100 scale, 0 is no effect, 100 is complete control); for pest or weed control at 500 g/ha: 500 g ai/ha, preemergence, visual injury rating about 10 d after treatment, 0 to 100 scale (0 no effect, 100 complete control), read-out: Barnyardgrass plant response rating
How it was run: as §1

[14] = postemergence, approx. 10 d, read-out: Plant response rating, Pigweed
[15] = postemergence, approx. 10 d, read-out: Plant response rating, Ragweed
[16] = postemergence, approx. 10 d, read-out: Plant response rating, Galium
[17] = postemergence, approx. 10 d, read-out: Plant response rating, Foxtail, Giant
[18] = postemergence, approx. 10 d, read-out: Plant response rating, Ryegrass, Italian
[19] = postemergence, approx. 10 d, read-out: Plant response rating, Wheat

CC(=O)Oc1ccc(F)c(NC(=O)[C@H]2C(=O)N(C)C[C@@H]2c2cc(F)cc(F)c2)c1 [Compound 1019]
0%: pest or weed control at 125 g/ha ([1]; Postemergence, visual injury after approximately 10 d, 0 to 100 scale where 0 is no effect and 100 is complete control, read-out: Plant response rating, Pigweed) | pest or weed control at 500 g/ha [1, 14] | pest or weed control at 125 g/ha ([2]; Postemergence, visual injury after approximately 10 d, 0 to 100 scale where 0 is no effect and 100 is complete control, read-out: Plant response rating, Ragweed) | pest or weed control at 500 g/ha [2, 15] | Corn plant response rating (crop injury, 0 = no effect, 100 = complete kill) at 125 g/ha (corn (Zea mays)) | Corn plant response rating (crop injury, 0 = no effect, 100 = complete kill) at 500 g/ha (corn (Zea mays)) | pest or weed control at 125 g/ha [3] | pest or weed control at 500 g/ha [3] | pest or weed control at 125 g/ha ([4]; Postemergence, visual injury after approximately 10 d, 0 to 100 scale where 0 is no effect and 100 is complete control, read-out: Plant response rating, Galium) | pest or weed control at 500 g/ha [4, 16] | pest or weed control at 125 g/ha ([5]; Postemergence, visual injury after approximately 10 d, 0 to 100 scale where 0 is no effect and 100 is complete control, read-out: Plant response rating, Foxtail, Giant) | pest or weed control at 500 g/ha [5, 17] | pest or weed control at 125 g/ha ([6]; Postemergence, visual injury after approximately 10 d, 0 to 100 scale where 0 is no effect and 100 is complete control, read-out: Plant response rating, Ryegrass, Italian) | pest or weed control at 500 g/ha [6, 18] | plant injury at 125 g/ha ([7]; Postemergence, visual injury after approximately 10 d, 0 to 100 scale where 0 is no effect and 100 is complete control, read-out: Plant response rating, Wheat) | plant injury at 500 g/ha [7, 19] | pest or weed control at 125 g/ha [8] | pest or weed control at 500 g/ha [8] | pest or weed control at 125 g/ha (Kochia (Kochia scoparia)) | pest or weed control at 500 g/ha (Kochia (Kochia scoparia)) | pest or weed control at 125 g/ha [9] | pest or weed control at 500 g/ha [9] | pest or weed control at 125 g/ha [10] | pest or weed control at 500 g/ha [10] | pest or weed control at 125 g/ha [11] | pest or weed control at 500 g/ha [11] | pest or weed control at 125 g/ha [12] | pest or weed control at 500 g/ha [12] | pest or weed control at 125 g/ha [13] | pest or weed control at 500 g/ha [13]

O=C(Nc1ccccc1F)[C@H]1C(=O)N(C2CC2)CC[C@@H]1c1ccccc1 [Compound 1031]
0%: pest or weed control at 125 g/ha ([1]; postemergence, visual injury on 0 to 100 scale (0 no effect, 100 complete control), approx. 10 d, read-out: Pigweed plant response rating) | pest or weed control at 500 g/ha [1, 14] | pest or weed control at 125 g/ha ([2]; postemergence, visual injury on 0 to 100 scale (0 no effect, 100 complete control), approx. 10 d, read-out: Ragweed plant response rating) | pest or weed control at 500 g/ha [2, 15] | Corn plant response rating (crop injury, 0 = no effect, 100 = complete kill) at 125 g/ha (corn (Zea mays)) | Corn plant response rating (crop injury, 0 = no effect, 100 = complete kill) at 500 g/ha (corn (Zea mays)) | pest or weed control at 125 g/ha [3] | pest or weed control at 500 g/ha [3] | pest or weed control at 125 g/ha ([4]; postemergence, visual injury on 0 to 100 scale (0 no effect, 100 complete control), approx. 10 d, read-out: Galium plant response rating) | pest or weed control at 500 g/ha [4, 16] | pest or weed control at 125 g/ha ([5]; postemergence, visual injury on 0 to 100 scale (0 no effect, 100 complete control), approx. 10 d, read-out: Foxtail, Giant plant response rating) | pest or weed control at 500 g/ha [5, 17] | pest or weed control at 125 g/ha ([6]; postemergence, visual injury on 0 to 100 scale (0 no effect, 100 complete control), approx. 10 d, read-out: Ryegrass, Italian plant response rating) | pest or weed control at 500 g/ha [6, 18] | plant injury at 125 g/ha ([7]; postemergence, visual injury on 0 to 100 scale (0 no effect, 100 complete control), approx. 10 d, read-out: Wheat plant response rating) | plant injury at 500 g/ha [7, 19] | pest or weed control at 125 g/ha [8] | pest or weed control at 500 g/ha [8] | pest or weed control at 125 g/ha (Kochia (Kochia scoparia)) | pest or weed control at 500 g/ha (Kochia (Kochia scoparia)) | pest or weed control at 125 g/ha [9] | pest or weed control at 500 g/ha [9] | pest or weed control at 125 g/ha [10] | pest or weed control at 500 g/ha [10] | pest or weed control at 125 g/ha [11] | pest or weed control at 500 g/ha [11] | pest or weed control at 125 g/ha [12] | pest or weed control at 500 g/ha [12] | pest or weed control at 125 g/ha [13] | pest or weed control at 500 g/ha [13]
